ChEMBL document CHEMBL5724709, “EUbOPEN Chemogenomics Library - IncuCyte” (2024)

Tests used:
Type in all cases: toxicity, cell-based
[1] = test system: HEK-293T; experiment: Incucyte cell viability with HEK293T; conditions: human, 24 h, 10 µM, compound concentration 10 uM
[2] = test system: U2OS; experiment: Incucyte cell viability with U2OS; conditions: human, 24 h, 10 µM, compound concentration 10 uM
[3] = test system: Fibroblast; experiment: Incucyte cell viability with human fibroblast; conditions: 24 h, 10 µM, compound concentration 10 uM
Further: unitless GR value; below 1 slowed growth and below 0 cell loss.

SMILES	Growth Rate ([1]; replicate number 1)	Growth Rate ([2]; replicate number 1)	Growth Rate ([3]; replicate number 1)	Growth Rate ([1]; replicate number 2)	Growth Rate ([2]; replicate number 2)	Growth Rate ([3]; replicate number 2)
NC(=O)c1ccc(Oc2ccc(C(N)=O)cc2)cc1	1	1	1	–	–	–
O=C(CCl)Nc1ccc(S(=O)(=O)c2ccc(NC(=O)CCl)cc2)cc1	-0.4	-0.42	-0.61	-0.18	0.05	-0.63
COc1cc2c(NC3CCN(CC4CCCCC4)CC3)nc(N3CCCN(C(C)C)CC3)nc2cc1OCCCN1CCCCC1	-0.58	-0.52	-0.44	-0.42	-0.15	-0.13
NC(=O)[C@H]1CCCCc2c1[nH]c1ccc(Cl)cc21	0.84	0.17	1	1	1	–
CN1CCc2c(n(Cc3ccc(C(=O)NO)cc3)c3ccccc23)C1	0.89	0.34	1	1	1	0.54
O=C(NCC(=O)N1CCCCC1)Nc1ccc2nnsc2c1	0.75	0.93	0.36	0.97	–	-0.42
O=C(NO)c1cccc(C(=O)NCCc2ccccc2)c1	0.83	0.02	1	0.99	0.85	-0.07
Nc1ccccc1NC(=O)CCCCCC(=O)Nc1ccccc1	1	0.46	1	–	1	-0.07
Cc1ccc(NC2=CC(=O)c3sc(C)nc3C2=O)cc1	-0.37	-0.86	-0.84	-0.23	-0.45	-0.96
CCOC(=O)NCCCC(=O)NCCc1ccccc1	0.61	0.48	1	0.8	0.84	–
O=C(NCC1(c2nc(-c3ccccc3)cs2)CCOCC1)c1cccc(-c2noc(C(F)(F)F)n2)c1	0.36	1	1	0.64	–	0.44
CC(C)C(=O)SCCCCCCC(=O)Nc1nc(-c2ccccc2)cs1	0.55	-0.42	1	–	0.02	-0.31
CC1=NN(c2ccc(C(=O)O)cc2)C(=O)/C1=C/c1ccc(-c2cc(C)c(C)cc2[N+](=O)[O-])o1	0.84	0.18	1	1	1	–
COC(=O)C[C@@H]1N=C(c2ccc(Cl)cc2)c2c(sc(C)c2C)-n2c(C)nnc21	0.62	1	1	0.77	–	0.73
COc1ccc2nc3[nH]nc(C)c3c(NCCOCCO)c2c1	0.57	0.89	0.52	0.77	1	0.43
CCC(CC)(NC(=O)C(C)C)C(=O)N[C@@H](CCCNC(=N)N)C(=O)NC1(C(=O)NC(c2ccc(F)cc2)c2ccc(F)cc2)CCCC1	0.95	1	0.56	1	0.97	-0.56
Cc1cc(C)c(CNC(=O)c2cc(-c3ccc(N4CCN(C)CC4)nc3)cc3c2c(C)cn3C(C)C)c(=O)[nH]1	0.42	0.61	1	0.79	0.86	–
Nc1ccc(-c2cccs2)cc1NC(=O)c1ccc2nc(N3CCNCC3)ccc2c1	0.92	0.21	1	0.99	0.63	–
COc1ccc(/C=C/C(=O)NO)c(-c2ccc(-c3ccccc3)cc2)c1	0.41	-0.07	-0.1	0.49	1	-0.52
CC1(C)c2cccc(C(=O)NO)c2CN1c1cnc(C(F)(F)F)cn1	0.61	0.15	1	0.71	1	-0.04
COc1cc2c(NC3CCN(C)CC3)cc(-c3ccc(C)o3)nc2cc1OCCCN1CCCC1	-0.35	-0.74	0.13	-0.25	-0.55	-0.42

SMILES	Growth Rate ([1]; replicate number 1)	Growth Rate ([2]; replicate number 1)	Growth Rate ([3]; replicate number 1)	Growth Rate ([1]; replicate number 2)	Growth Rate ([2]; replicate number 2)	Growth Rate ([3]; replicate number 2)
Cc1cc(/N=N/c2ccc3c(c2)CCC(=O)N3)c(N)cc1O	0.63	0.36	1	0.88	1	–
CNC(=O)c1ccc(-c2cc3cccc(-c4nn(C5CCOCC5)c5c4CN(C(C)=O)CC5)c3cn2)cn1	0.61	0.12	1	0.57	0.95	–
CC(=O)Nc1ccc(C(=O)Nc2ccc(F)cc2N)cc1	0.67	1	1	1	–	–
Cc1cc(C)cc(Oc2ccc(CNC(=O)[C@H](C)N)cc2C)c1.Cl	0.84	0.69	1	0.89	1	–
COc1nc(Nc2cc(S(C)(=O)=O)ccc2N[C@@H](c2cccc3c2OC(F)(F)O3)c2ncccc2Cl)nc(N2CCNCC2)n1	-0.57	-0.91	-0.22	-0.39	-0.02	-0.7
O=C(NO)C(c1ccc(-c2ncc(C(F)(F)F)cn2)cc1)c1ccccc1F (configuration not stated)	-0.14	0.6	0.37	0.69	0.81	-0.57
CC(C)(CNC(=O)c1cccc(-c2noc(C(F)(F)F)n2)c1)c1coc(-c2ccccc2)n1	0.69	1	0.48	0.79	–	0.8
Cc1ncccc1-c1cnc(NCc2c(F)ccc3c2CCO3)n2cnnc12	0.64	1	0.59	1	0.88	0.1
CCCCCCCCCCCCCCCCNNC(=O)c1cccs1	0.8	0.83	0.8	1	1	0.19
CNC(=O)Cn1cc(-c2ccc3c(c2)[C@H](F)C[C@]32NC(=O)N(CC(=O)N(Cc3ccc(F)cc3)[C@@H](C)C(F)(F)F)C2=O)cn1	-0.53	-0.12	0.7	0.24	0.63	-0.43
CC(C)(C)OC(=O)Nc1ccc(-c2cc(C(=O)NCCCCCCC(=O)NO)no2)cc1	0.72	0.28	1	0.67	0.63	-0.09
CN(C)Cc1ccc(S(=O)(=O)n2ccc(/C=C/C(=O)NO)c2)cc1.Cl	0.53	0.51	0.79	0.75	-0.17	-0.05
CCCOc1cc(OCCCCN(C)C)cc(Oc2cc3c(cc2NS(=O)(=O)c2ccc(OC)c(OC)c2)n(C)c(=O)n3C)c1.O=C(O)C(F)(F)F	0.59	0.87	1	0.72	1	–
O=C([O-])CCNc1cc(N2CCc3ccccc3CC2)nc(-c2cccnc2)n1.[Na+]	0.83	0.55	1	0.92	1	–
CCOCC1(COCC)CCC(c2n[nH]cc2CN(C)CCNC)CC1.Cl	0.61	0.95	1	0.63	–	0.32
Cl.Cl.Nc1ncnc2c1ncn2[C@@H]1O[C@H](C(=O)N2CCN(CC(=O)Nc3cccc4c3CNC4=O)CC2)[C@@H](O)[C@H]1O	0.67	1	1	1	0.84	–
CCN(CCN(C)C)C(=O)CNCc1cc(C(N)=O)ccn1.Cl.O	0.74	0.89	0.65	0.94	0.8	0.4
Br.N#Cc1ccc(-c2csc(NN=C3CCCC3)n2)cc1	-0.06	0.63	0.31	0.21	1	0.62
CNCCN(C)Cc1cn[nH]c1-c1ccc(OC2CC(OCCC3CCOCC3)C2)cc1 (configuration not stated)	0.64	0.23	0.77	0.82	1	0.95
COc1cc2c(NC3CCN(C)CC3)nc(N3CCCN(C)CC3)nc2cc1OCCCN(C)C	0.78	0.63	1	1	1	–
